According to US6218393A, “Anthranilic acid derivatives as multi drug resistance modulators” (priority 1997, dated 2001):

Assays:
AR 1.0 cells [1] = assay: Potentiation of doxorubicin toxicity: proliferation assay (sulphorhodamine B); format: cell-based, mouse
Description: (a) Selected compounds of formula (I) were examined for their ability to potentiate the toxicity of doxorubicin in AR 1.0 cells.

AR 1.0 cells [2] = assay: Potentiation index with doxorubicin titration; format: cell-based, mouse; details: for Potentiation Index at RMA concentration 500 nM: Table C2, RMA 500 nM; for Potentiation Index at RMA concentration 300 nM: Table C2, RMA 300 nM; for Potentiation Index at RMA concentration 100 nM: Table C2, RMA 100 nM
Method in brief: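 MDR-resistant mouse EMT6 subline AR 1.0 grown four days with a doxorubicin titration (0.263 nM-17.24 μM) plus a fixed compound concentration; proliferation by sulphorhodamine B. Potentiation index derived from doxorubicin IC50 alone versus with compound.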

AR 1.0 cells [3] = assay: Drug accumulation assay: daunorubicin accumulation in AR 1.0 cells; format: cell-based; details: Mus musculus, 100% = accumulation with verapamil 100 μM, 1 hr, 37° C.
Method in brief: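 AR 1.0 is the MDR-resistant subline of EMT6 mouse mammary carcinoma, grown in RPMI 1640 with 10% foetal calf serum and 2 mM glutamine at 37 °C, 5% CO2. Cells were seeded 48 h before the daunorubicin accumulation assay.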

[4] = Mus musculus, 96 h, compound alone, four day proliferation, read-out: Compound Toxicity (IC50)
[5] = with fixed doxorubicin 0.34 μm, four days, 5760 min, read-out: Toxicity with Cytotoxic Agent (IC50)

Compound | IC50 (AR 1.0 cells [1]; [4]) | Potentiation Index at RMA concentration 500 nM (AR 1.0 cells [2]) | IC50 (AR 1.0 cells [3]) | IC50 (AR 1.0 cells [1]; [5]) | Potentiation Index at RMA concentration 300 nM (AR 1.0 cells [2]) | Potentiation Index at RMA concentration 100 nM (AR 1.0 cells [2]) | Potentiation Index at RMA concentration 30 nM (AR 1.0 cells [2]; Table C2, RMA 30 nM)
COc1cc2c(cc1OC)CN(CCNC(=O)c1cc(Br)ccc1NC(=O)c1ccc(C(C)C)cc1)CC2 [compound 9394, 2-(4-Isopropyl-benzoylamino)-N-[2-(6,7-dimethoxy-3,4-dihydro-1H-isoquinolin-2-yl)-ethyl]-5-bromo-benzamide] | 10000 nM | 12 | 3400 nM |  |  |  | 
CCCCCc1ccc(C(=O)Nc2ccccc2C(=O)NCCN2CCc3cc(OC)c(OC)cc3C2)cc1 [compound 9395, 2-(4-Pentyl-benzoylamino)-N-[2-(6,7-dimethoxy-3,4-dihydro-1H-isoquinolin-2-yl)-ethyl]-benzamide] | 9000 nM | 21 | 1300 nM | 150 nM |  |  | 
COc1cc2c(cc1OC)CN(CCNC(=O)c1c(Cl)cccc1NC(=O)c1ccc(C(C)C)cc1)CC2 [compound 9405, 2-(4-Isopropyl-benzoylamino)-N-[2-(6,7-dimethoxy-3,4-dihydro-1H-isoquinolin-2-yl)-ethyl]-6-chioro-benzamide] | 22000 nM | 8.6 | 300 nM | 90 nM |  |  | 
COc1cc2c(cc1OC)CN(CCNC(=O)c1ccc([N+](=O)[O-])cc1NC(=O)c1ccc(C(C)C)cc1)CC2 [compound 9420, 2-(4-Isopropyl-benzoylamino)-N-[2-(6,7-dimethoxy-3,4-dihydro-1H-isoquinolin-2-yl)-ethyl]-4-nitro-benzamide] | 7000 nM | 25 | 1900 nM | 400 nM |  |  | 
COc1cc2c(cc1OC)CN(CCNC(=O)c1cccc(O)c1NC(=O)c1ccc(C(C)C)cc1)CC2 [compound 9424, 2-(4-Isopropyl-benzoylamino)-N-[2-(6,7-dimethoxy-3,4-dihydro-1H-isoquinolin-2-yl)-ethyl]-3-hydroxy-benzamide] | 39000 nM | 37 | 2500 nM | 2600 nM |  |  | 
COc1cc2c(cc1OC)CN(CCNC(=O)c1ccccc1NC(=O)c1ccc(Oc3ccccc3)cc1)CC2 [compound 9426, 2-(4-Phenoxy-benzoylamino)-N-[2-(6,7-dimethoxy-3,4-dihydro-1H-isoquinolin-2-yl)-ethyl]-benzamide] | 7000 nM | 65 | 690 nM | 60 nM |  |  | 
COc1cc2c(cc1OC)CN(CCNC(=O)c1ccccc1NC(=O)c1ccc(C(=O)c3ccccc3)cc1)CC2 [compound 9427, 2-(4-Benzoyl-benzoylamino)-N-[2-(6,7-dimethoxy-3,4-dihydro-1H-isoquinolin-2-yl)-ethyl]-benzamide] | 10000 nM | 32 | 530 nM |  | 14 |  | 
COc1cc2c(cc1OC)CN(CCNC(=O)c1ccccc1NC(=O)c1ccc(Cc3ccccc3)cc1)CC2 [compound 9442, 2-(4-Benzyl-benzoylamino)-N-[2-(6,7-dimethoxy-3,4-dihydro-1H-isoquinolin-2-yl)-ethyl]-benzamide] | 7200 nM | 67 | 1000 nM | 50 nM | 27 |  | 
COc1cc2c(cc1OC)CN(CCc1ccc(NC(=O)c3ccccc3NC(=O)c3ccc(C(C)C)cc3)cc1)CC2 [compound 9447, 2-(4-Isopropyl-benzoylamino)-N-{4-[2-(6,7-dimethoxy-3,4-dihydro-1H-isoquinolin-2-yl)-ethyl]-phenyl}-benzamide] | 6800 nM | 340 | 700 nM | 65 nM | 40 |  | 
COc1cc2c(cc1OC)CN(CCc1ccc(NC(=O)c3ccccc3NC(=O)c3ccccc3)cc1)CC2 [compound 9456, 2-Benzoylamino-N-{4-[2-(6,7-dimethoxy-3,4-dihydro-1H-isoquinolin-2-yl)-ethyl]-phenyl}-benzamide] | 5000 nM |  | 300 nM |  |  | 112 | 
COc1cc2c(cc1OC)CN(CCNC(=O)c1ccccc1NC(=O)c1ccc(OC3CCCCC3)cc1)CC2 [compound 9459, 2-(4-Cyclohexyloxy-benzoylamino)-N-[2-(6,7-dimethoxy-3,4-dihydro-1H-isoquinolin-2-yl)-ethyl]-benzamide] | 8500 nM | 112 | 650 nM | 90 nM | 45 |  | 
COc1cc2c(cc1OC)CN(CCNC(=O)c1ccccc1NC(=O)c1ccc(OCc3ccccc3)cc1)CC2 [compound 9460, 2-(4-Benzyloxy-benzoylamino)-N-[2-(6,7-dimethoxy-3,4-dihydro-1H-isoquinolin-2-yl)-ethyl]-benzamide] | 7500 nM | 36 | 1000 nM | 180 nM | 18 |  | 
COc1cc2c(cc1OC)CN(CCc1ccc(NC(=O)c3ccccc3NC(=O)c3ccc(C4CCCCC4)cc3)cc1)CC2 [compound 9461, 2-(4-Cyclohexyl-benzoylamino)-N-{4-[2-(6,7-dimethoxy-3,4-dihydro-1H-isoquinolin-2-yl)-ethyl]-phenyl}-benzamide] | 7500 nM | 30 | 1800 nM | 300 nM | 13 |  | 
COc1cc2c(cc1OC)CN(CCCNC(=O)c1ccccc1NC(=O)c1ccc(C3CCCCC3)cc1)CC2 [compound 9466] | 6000 nM | 60 | 1400 nM | 50 nM | 30 |  | 
COc1cc2c(cc1OC)CN(CCc1ccc(NC(=O)c3ccccc3NC(=O)c3cccc4ccccc34)cc1)CC2 [compound 9470] | 3500 nM | 90 | 1300 nM | 75 nM | 26 |  | 
COc1cc2c(cc1OC)CN(CCc1ccc(NC(=O)c3ccccc3NC(=O)c3cccs3)cc1)CC2 [compound 9471, Thiophene-2-carboxylic acid (2-{4-[2-(6,7-dimethoxy-3,4-dihydro-1H-isoquinolin-2-yl)-ethyl]-phenylcarbamoyl}-phenyl)-amide] | 2600 nM | 230 | 200 nM |  | 115 |  | 
COc1cc2c(cc1OC)CN(CCc1ccc(NC(=O)c3ccccc3NC(=O)c3ccc4ccccc4c3)cc1)CC2 [compound 9476, Naphthaiene-2-carboxylic acid (2-{4-[2-(6,7-dimethoxy-3,4-dihydro-1H-isoquinolin-2-yl)-ethyl]-phenylcarbamoyl}-phenyl)-amide] | 2000 nM | 136 | 350 nM |  | 83 |  | 
COc1cc2c(cc1OC)CN(CCc1ccc(NC(=O)c3ccccc3NC(=O)c3ccccc3OC)cc1)CC2 [compound 9477, 2-(2-Methoxy-benzoylamino)-N-{4-[2-(617-dimethoxy-3,4-dihydro-1H-isoquinolin-2-yl)-ethyl]-phenyl}-benzamide] | 4000 nM | 63 | 410 nM |  | 29 |  | 
COc1cc2c(cc1OC)CN(CCc1ccc(NC(=O)c3ccccc3NC(=O)c3ccncc3)cc1)CC2 [compound 9483, N-(2-{4-[2-(6,7-Dimethoxy-3,4-dihydro-1H-isoquinolin-2-yl)-ethyl]-phenylcarbamoyl}-phenyl}-isonicotinamide] | 8500 nM | 24 | 1700 nM | 350 nM | 14 |  | 
COc1cc2c(cc1OC)CN(CCc1ccc(NC(=O)c3ccccc3NC(=O)c3ccccc3F)cc1)CC2 [compound 9489, 2-(2-Fluoro-benzoylamino)-N-{4-[2-(6,7-dimethoxy-3,4-dihydro-1H-isoquinolin-2-yl)-ethyl]-phenyl}-benzamide] | 7000 nM | 303 | 150 nM | 50 nM | 192 | 77 | 
COc1cc2c(cc1OC)CN(CCc1ccc(NC(=O)c3ccccc3NC(=O)c3cnccn3)cc1)CC2 [compound 9493, Pyrazine-2-carboxylic acid (2-{4-[2-(6,7-dimethoxy-3,4-dihydro-1H-isoquinolin-2-yl)-ethyl]-phenylcarbamoyl}-phenyl)-amide] | 9000 nM | 200 | 220 nM | 50 nM | 85 | 7.6 | 
COc1cc2c(cc1OC)CN(CCc1ccc(NC(=O)c3ccccc3NC(=O)c3ccccc3Cl)cc1)CC2 [compound 9494] | 9000 nM | 148 | 400 nM | 50 nM | 38 |  | 
COc1cc2c(cc1OC)CN(CCc1ccc(NC(=O)c3ccccc3NC(=O)c3cccc(Cl)c3)cc1)CC2 [compound 9495, 2-(3-chloro-benzoylamino)-N-{4-[2-(617-dimethoxy-3,4-dihydro-1H-isoquinolin-2-yl)-ethyl]-phenyl}-benzamide] | 4000 nM | 567 | 500 nM |  | 261 | 15 | 1.3
